From patent US20260327221A1, “INHIBITORS OF CYCLIC GMP-AMP SYNTHASE AND USES THEREOF” (Ventus Therapeutics U.S., Inc., priority 2023, published 2026)
Like-named read-outs stand apart in the source and are kept apart here.

Biological target: hcGAS (Homo sapiens, UniProt Q8N884)
Test: hcGAS LCMS assay (direct measurement of cGAMP production by LC/MS)
Assay type: biochemical
Summary of the method: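 Enzyme, substrates (ATP, GTP) and compound incubated 4 h, then quenched with acetonitrile/water containing 0.15 uM 13C/15N-labeled cGAMP internal standard. cGAMP formed quantified directly by LC/MS on HILIC amide column; IC50 values reported in potency bins.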

[1] = 4 h incubation with enzyme and substrates, cGAMP production by LC/MS, class symbols, read-out: hcGAS LCMS IC50

Chain of hcGAS (Q8N884 whole entry): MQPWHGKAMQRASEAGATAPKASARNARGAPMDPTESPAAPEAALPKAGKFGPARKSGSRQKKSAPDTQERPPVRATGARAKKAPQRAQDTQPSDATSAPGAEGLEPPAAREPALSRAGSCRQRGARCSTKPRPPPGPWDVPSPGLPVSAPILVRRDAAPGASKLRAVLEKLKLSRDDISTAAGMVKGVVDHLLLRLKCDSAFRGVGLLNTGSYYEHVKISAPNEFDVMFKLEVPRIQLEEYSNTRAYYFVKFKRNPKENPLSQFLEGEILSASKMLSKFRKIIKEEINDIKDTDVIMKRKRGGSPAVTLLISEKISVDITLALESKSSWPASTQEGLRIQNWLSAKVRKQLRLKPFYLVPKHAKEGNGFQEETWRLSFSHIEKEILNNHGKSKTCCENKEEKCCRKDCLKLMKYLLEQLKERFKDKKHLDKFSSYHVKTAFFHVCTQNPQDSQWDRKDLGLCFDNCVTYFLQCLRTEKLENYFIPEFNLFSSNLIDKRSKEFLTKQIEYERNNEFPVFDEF

Row | Structure (SMILES) | IC50 [1] [nM] | IC50 (hcGAS 0.5 nM, ATP 100 μM, GTP 100 μM, dsDNA 25 nM, pH 7.4, 4 h incubation, read-out: hcGAS inhibition IC50 (activity class, Table D)) [nM]
1 | COCCOc1c(-c2ncccc2OC)cc(C(=O)Nc2nnc(-c3c(F)ccn3C)s2)oc1=O [Compound 18, N-(5-(3-fluoro-1-methyl-1H-pyrrol-2-yl)-1,3,4-thiadiazol-2-yl)-3-(2-methoxyethoxy)-4-(3-methoxypyridin-2-yl)-2-oxo-2H-pyran-6-carboxamide] | 1 to 5 | –
2 | COc1cccc(OC)c1-c1cc(C(=O)Nc2nnc(-n3nccc3N)s2)oc(=O)c1OCCN1C[C@H]2C[C@@H]1CS2 [93B*, 3-(2-((1R,4R)-2-thia-5-azabicyclo[2.2.1]heptan-5-yl)ethoxy)-N-(5-(5-amino-1H-pyrazol-1-yl)-1,3,4-thiadiazol-2-yl)-4-(2,6-dimethoxyphenyl)-2-oxo-2H-pyran-6-carboxamide] | 0.5 to 1 | –
3 | COCC(COC)Oc1c(-c2c(OC)cccc2OC)cc(C(=O)Nc2nnc(-n3nccc3N)s2)oc1=O [Compound 20, N-(5-(5-amino-1H-pyrazol-1-yl)-1,3,4-thiadiazol-2-yl)-4-(2,6-dimethoxyphenyl)-3-((1,3-dimethoxypropan-2-yl)oxy)-2-oxo-2H-pyran-6-carboxamide] | 1 to 5 | –
4 | COCCOc1c(-c2c(OC)cncc2OC)cc(C(=O)Nc2nnc(-n3nccc3N)s2)oc1=O [Compound 28, N-(5-(5-amino-1H-pyrazol-1-yl)-1,3,4-thiadiazol-2-yl)-4-(3,5-dimethoxypyridin-4-yl)-3-(2-methoxyethoxy)-2-oxo-2H-pyran-6-carboxamide] | 1 to 5 | –
5 | COc1cccc(OC)c1-c1cc(C(=O)Nc2nnc(-n3nccc3N)s2)oc(=O)c1OC[C@H](C)OC [Compound 53, (S)-N-(5-(5-amino-1H-pyrazol-1-yl)-1,3,4-thiadiazol-2-yl)-4-(2,6-dimethoxyphenyl)-3-(2-methoxypropoxy)-2-oxo-2H-pyran-6-carboxamide] | < 0.5 | –
6 | COc1cccc(OC)c1-c1cc(C(=O)Nc2nnc(-n3nccc3N)s2)oc(=O)c1OCCC(C)(C)O [Compound 59, N-(5-(5-amino-1H-pyrazol-1-yl)-1,3,4-thiadiazol-2-yl)-4-(2,6-dimethoxyphenyl)-3-(3-hydroxy-3-methylbutoxy)-2-oxo-2H-pyran-6-carboxamide] | < 0.5 | –
7 | COCCOc1c(-c2c(C#N)cccc2OC(F)F)cc(C(=O)Nc2nnc(-n3nccc3N)s2)oc1=O [Compound 74, N-(5-(5-amino-1H-pyrazol-1-yl)-1,3,4-thiadiazol-2-yl)-4-(2-cyano-6-(difluoromethoxy)phenyl)-3-(2-methoxyethoxy)-2-oxo-2H-pyran-6-carboxamide] | 0.5 to 1 | –
8 | COCCOc1c(-c2ncccc2OC)cc(C(=O)Nc2nnc(-n3nccc3N)s2)oc1=O [Compound 10, N-(5-(5-amino-1H-pyrazol-1-yl)-1,3,4-thiadiazol-2-yl)-3-(2-methoxyethoxy)-4-(3-methoxypyridin-2-yl)-2-oxo-2H-pyran-6-carboxamide] | 1 to 5 | –
9 | COc1cccc(OC)c1-c1cc(C(=O)Nc2nnc(-n3nccc3N)s2)oc(=O)c1OCCN1CCSCC1CO (centres unmarked) [96A*/96B*] | 1 to 5 | –
10 | COc1cccc(OC)c1-c1cc(C(=O)Nc2nnc(-n3nccc3N)s2)oc(=O)c1OC[C@H](C)O [Compound 46B, (S)—N-(5-(5-amino-1H-pyrazol-1-yl)-1,3,4-thiadiazol-2-yl)-4-(2,6-dimethoxyphenyl)-3-(2-hydroxypropoxy)-2-oxo-2H-pyran-6-carboxamide] | < 0.5 | –
11 | COCCOc1c(-c2ncccc2OC2CC2)cc(C(=O)Nc2nnc(-n3nccc3N)s2)oc1=O [Compound 70, N-(5-(5-amino-1H-pyrazol-1-yl)-1,3,4-thiadiazol-2-yl)-4-(3-cyclopropoxypyridin-2-yl)-3-(2-methoxyethoxy)-2-oxo-2H-pyran-6-carboxamide] | 0.5 to 1 | –
12 | COCCOc1c(-c2c(OC)cccc2OCCC#N)cc(C(=O)Nc2nnc(-n3nccc3N)s2)oc1=O [Compound 67, N-(5-(5-amino-1H-pyrazol-1-yl)-1,3,4-thiadiazol-2-yl)-4-(2-(2-cyanoethoxy)-6-methoxyphenyl)-3-(2-methoxyethoxy)-2-oxo-2H-pyran-6-carboxamide] | 1 to 5 | –
13 | COc1cccc(OC)c1-c1cc(C(=O)Nc2nnc(-n3nccc3N)s2)oc(=O)c1OC[C@@H]1COCCO1 (single isomer, unassigned) [Compound 43A*] | 0.5 to 1 | –
14 | COC[C@H](O)COc1c(-c2c(OC)cccc2OC)cc(C(=O)Nc2nnc(-n3nccc3N)s2)oc1=O [Compound 63A*, (S)—N-(5-(5-amino-1H-pyrazol-1-yl)-1,3,4-thiadiazol-2-yl)-4-(2,6-dimethoxyphenyl)-3-(2-hydroxy-3-methoxypropoxy)-2-oxo-2H-pyran-6-carboxamide] | 0.5 to 1 | –
15 | COc1cccc(OC)c1-c1cc(C(=O)Nc2nnc(-n3nccc3N)s2)oc(=O)c1O[C@@H](CO)CN1CCSCC1 [81B*, (R)-N-(5-(5-amino-1H-pyrazol-1-yl)-1,3,4-thiadiazol-2-yl)-4-(2,6-dimethoxyphenyl)-3-((1-hydroxy-3-thiomorpholinopropan-2-yl)oxy)-2-oxo-2H-pyran-6-carboxamide] | 1 to 5 | –
16 | COCCOc1c(-c2c(Cl)cccc2C#N)cc(C(=O)Nc2nnc(-n3nccc3N)s2)oc1=O [Compound 45, N-(5-(5-amino-1H-pyrazol-1-yl)-1,3,4-thiadiazol-2-yl)-4-(2-chloro-6-cyanophenyl)-3-(2-methoxyethoxy)-2-oxo-2H-pyran-6-carboxamide] | < 0.5 | < 0.5
17 | COc1cccc(OC)c1-c1cc(C(=O)Nc2nnc(-n3nccc3N)s2)oc(=O)c1OCCCO [Compound 40, N-(5-(5-amino-1H-pyrazol-1-yl)-1,3,4-thiadiazol-2-yl)-4-(2,6-dimethoxyphenyl)-3-(3-hydroxypropoxy)-2-oxo-2H-pyran-6-carboxamide] | 0.5 to 1 | –
18 | COCCOc1c(-c2c(C#N)cccc2CO)cc(C(=O)Nc2nnc(-n3nccc3N)s2)oc1=O [Compound 48, N-(5-(5-amino-1H-pyrazol-1-yl)-1,3,4-thiadiazol-2-yl)-4-(2-cyano-6-(hydroxymethyl)phenyl)-3-(2-methoxyethoxy)-2-oxo-2H-pyran-6-carboxamide] | 0.5 to 1 | –
19 | COc1cccc(OC)c1-c1cc(C(=O)Nc2nnc(-n3nccc3N)s2)oc(=O)c1OCCN1CC2(CCS2)C1 [Compound 72, 3-(2-(1-thia-6-azaspiro[3.3]heptan-6-yl)ethoxy)-N-(5-(5-amino-1H-pyrazol-1-yl)-1,3,4-thiadiazol-2-yl)-4-(2,6-dimethoxyphenyl)-2-oxo-2H-pyran-6-carboxamide] | 0.5 to 1 | –
20 | COCCOc1cccc(OC)c1-c1cc(C(=O)Nc2nnc(-n3nccc3N)s2)oc(=O)c1OCCOC [Compound 27, N-(5-(5-amino-1H-pyrazol-1-yl)-1,3,4-thiadiazol-2-yl)-4-(2-methoxy-6-(2-methoxyethoxy)phenyl)-3-(2-methoxyethoxy)-2-oxo-2H-pyran-6-carboxamide] | 1 to 5 | –
21 | COc1cccc(OC)c1-c1cc(C(=O)Nc2nnc(-n3nccc3N)s2)oc(=O)c1O[C@H](CO)C1CC1 [106A*, (S)-N-(5-(5-amino-1H-pyrazol-1yl)-1,3,4-thiadiazol-2-yl)-3-(1-cyclopropyl-2-hydroxyethoxy)-4-(2,6-dimethoxyphenyl)-2-oxo-2H-pyran-6-carboxamide] | 1 to 5 | –
22 | COc1cccc(OC)c1-c1cc(C(=O)Nc2nnc(-n3nccc3N)s2)oc(=O)c1OCCN1C2CSCC1C2 [Compound 94, 3-(2-(3-thia-6-azabicyclo[3.1.1]heptan-6-yl)ethoxy)-N-(5-(5-amino-1H-pyrazol-1-yl)-1,3,4-thiadiazol-2-yl)-4-(2,6-dimethoxyphenyl)-2-oxo-2H-pyran-6-carboxamide] | 0.5 to 1 | –
